Experimental findings from patent US10543183B2, “Treatment and diagnosis of melanoma” (The Rockefeller University, priority 2012, dated 2020) are described below.

The test system of assay [1] is ApoE expression in systemic tissues. Kind of assay: systemic ApoE expression in mouse tissues (western blot, qRT-PCR). Conditions: 10 days; for ApoE protein expression in systemic adipose, lung, and brain tissues: chow 20 mg/kg; for ApoE transcript levels in circulating white blood cells: diet 20 mg/kg. Format: in vivo. How it is done:
Mouse lung and brain tissue samples were homogenized on ice in RIPA buffer (Sigma-Aldrich) supplemented with protease inhibitors (Roche). Mouse adipose tissue was homogenized on ice in TNET buffer (1.5 mM Tris pH 7.5, 150 mM NaCl, 2 mM EDTA 1% triton, protease inhibitors). Total protein lysate (2 μg) was separated by SDS-PAGE, transferred to PVDF membrane, and blotted with an anti-mouse ApoE (ab20874, Abcam) and anti-tubulin α/β (2148, Cell Signaling) antibodies. RNA was extracted from whole cell lysates using the Total RNA Purification Kit (17200, Norgen, Thorold, Canada). 600 ng of total RNA was then reverse transcribed into cDNA using the cDNA First-Strand Synthesis Kit (18080-051, Invitrogen), and quantitative real-time PCR amplification was performed as previously described (Pencheva et al., 2012) using an ABI Prism 7900HT Real-Time PCR System (Applied Biosystems, Austin, Tex.). Each PCR reaction was carried out in quadruplicates. Gene expression was normalized to GAPDH, which was used as an endogenous control.
(In general: Immunoblotting shows a protein as a band on a membrane.)

The subject of assay [2] is human melanoma cells (MeWo, MeWo-LM2, HT-144, SK-Mel-2, SK-Mel-334.2). The assay can be described thus: trans-well matrigel cell invasion assay, melanoma cells. Format: cell-based. Conditions: for ability of melanoma cells to invade through matrigel: MeWo, HT-144, SK-Mel-2, SK-Mel-334.2, 1 μM for 72 hours. How it is done: Cancer cells were serum-starved in 0.2% FBS DMEM-based media for 12 hours. Trans-well invasion chambers (354480, BD Biosciences, Bedford, Mass.) were pre-equilibrated prior to beginning the assay by adding 0.5 mL of starvation media to the top and bottom chambers. After 30 minutes, the media in the top chamber was removed, and 0.5 mL of media containing 1×10^5 cancer cells was added into each matrigel-coated trans-well insert and incubated at 37° C. for 24 hours. For neutralization antibody and/or recombinant protein experiments, antibody/recombinant protein was added to each well at the start of the assay at the following concentrations as indicated in the figures: 5-40 μg/mL anti-ApoE 1D7 (Heart Institute, University of Ottawa), 5-40 μg/mL anti-IgG (AB-108-C, R&D Systems, Minneapolis, Minn.), 100 μM recombinant human ApoE3 (4696, BioVision, Mountain View, Calif.), and 100 μM BSA (A2153, Sigma-Aldrich). Upon completion of the assay, matrigel-coated inserts were washed with PBS, the cells at the top side of each insert were scraped off, and the inserts were fixed in 4% paraformaldehyde for 15 minutes. The inserts were then cut out and mounted onto slides using VectaShield mounting medium containing DAPI (H-1000, Vector Laboratories, Burlingame, Calif.). The basal side of each insert was imaged using an inverted fluorescence microscope (Zeiss Axiovert 40 CFL) at 5× magnification, taking three representative images for each insert. The number of invaded cells was quantified using ImageJ (NIH).
The cell invasion assay was performed as previously described in detail (Pencheva et al., 2012) using a trans-well matrigel invasion chamber system (354480, BD Biosciences). In brief, various melanoma cells were cultured in the presence of DMSO, GW3965, T0901317, or Bexarotene at 1 μM for 56 hours, after which melanoma cells were switched to starvation media (0.2% FBS) for 16 hours in the presence of each drug. Following starvation, cells were seeded into matrigel-coated trans-well inserts, and the invasion assay was allowed to proceed for 24 hours at 37° C. For ApoE antibody neutralization experiments, 40 μg/mL 1D7 anti-ApoE blocking antibody (Heart Institute, University of Ottawa, Ottawa, Canada) or 40 μg/mL anti-IgG control antibody (AB-108-C, R&D Systems, Minneapolis, Minn.) was added to each trans-well insert at the start of the assay.
The cells were then serum starved for 16 hours in 0.2% FBS media in the presence of each corresponding drug or DMSO. Following serum starvation, the cells were subjected to the trans-well invasion assay using a matrigel invasion chamber system (354480, BD Biosciences). Invasion chambers were pre-equilibrated prior to the assay by adding 0.5 mL of starvation media to the top and bottom wells. Meanwhile, cancer cells were trypsinized and viable cells were counted using trypan blue. Cancer cells were then resuspended at a concentration of 2×10^5 cells/1 mL starvation media, and 0.5 mL of cell suspension, containing 1×10^5 cells, was seeded into each trans-well. The invasion assay was allowed to proceed for 24 hours at 37° C. […] Following fixation, the inserts were washed in PBS, cut out, and mounted onto slides using VectaShield mounting medium containing DAPI nuclear stain (H-1000, Vector Laboratories). The basal side of each insert was imaged using an inverted fluorescence microscope (Zeiss Axiovert 40 CFL) at 5× magnification, and the number of DAPI-positive cells was quantified using ImageJ.

Assay [3] deals with ApoE expression in human melanoma cells. The assay can be described thus: ApoE mRNA expression by qRT-PCR in melanoma cells. Format: cell-based. How it is done:
Total RNA was extracted from various cell lines using the miRvana kit (AM1560, Applied Biosystems, Austin, Tex.). The expression levels of mature miRNAs were quantified using the Taqman miRNA expression assay (4427975-0002228, Applied Biosystems). RNU44 was used as an endogenous control for normalization. For mRNA expression analyses, 600 ng of total RNA was reverse transcribed using the cDNA First-Strand Synthesis Kit (18080-051, Invitrogen), and roughly 200 ng of the resulting cDNA was then mixed with SYBR green PCR Master Mix (4309155, Applied Biosystems) and the appropriate primers. Each reaction was performed in quadruplicate, and mRNA expression was quantified by performing real-time PCR amplification using an ABI Prism 7900HT Real-Time PCR System (Applied Biosystems). GAPDH was used as an endogenous control for normalization. The following primers were used: […]
RNA was extracted from whole cell lysates using the Total RNA Purification Kit (17200, Norgen, Thorold, Canada). 600 ng of total RNA was then reverse transcribed into cDNA using the cDNA First-Strand Synthesis Kit (18080-051, Invitrogen), and quantitative real-time PCR amplification was performed as previously described (Pencheva et al., 2012) using an ABI Prism 7900HT Real-Time PCR System (Applied Biosystems, Austin, Tex.). Each PCR reaction was carried out in quadruplicates. Gene expression was normalized to GAPDH, which was used as an endogenous control.
For every sample, 600 ng of RNA was reverse transcribed into cDNA using the cDNA First-Strand Synthesis kit (Invitrogen). Approximately 200 ng of cDNA was mixed with SYBR® green PCR Master Mix and the corresponding forward and reverse primers specific for detection of human ApoE. Each reaction was carried out in quadruplicates, and ApoE mRNA expression levels were measured by quantitative real-time PCR amplification using an ABI Prism 7900HT Real-Time PCR System (Applied Biosystems). The relative ApoE expression was determined using the ΔΔCt method. GAPDH was used as an endogenous control for normalization purposes.
(In qPCR the cycle at which signal appears reflects the starting amount.)

Where a name gives a salt, the structure may show the parent alone.

`O=S(=O)(c1ccccc1)N(CC(F)(F)F)c1ccc(C(O)(C(F)(F)F)C(F)(F)F)cc1` [T0901317 1]: in assay [1], the “ApoE protein expression in systemic adipose, lung, and brain tissues” value is on record as “significantly elevated”; the “ApoE transcript levels in circulating white blood cells” value is recorded as “upregulated”. Besides, the “ability of melanoma cells to invade through matrigel” value in assay [2] was “consistently suppressed”. For the same compound, the “potency of ApoE expression induction in vitro” value in assay [3] is “potently induce”.
Turning to “recombinant ApoE3: recombinant human ApoE3 (4696, BioVision)”, in assay [2] (100 μM added to cell media), the “invasion by metastatic LM2 cells” value is reported as “significantly suppressed”.
`O=C(O)Cc1cccc(OCCCN(Cc2cccc(C(F)(F)F)c2Cl)CC(c2ccccc2)c2ccccc2)c1` [GW3965 2, 3-[3-[N-(2-Chloro-3-trifluoromethylbenzyl)-(2,2-diphenylethyl)amino]propyloxy] phenylacetic acid hydrochloride]: in assay [1], the “ApoE protein expression in systemic adipose, lung, and brain tissues” value is listed as “significantly elevated”; the “ApoE transcript levels in circulating white blood cells” value is given as “upregulated”. Moreover, the “ability of melanoma cells to invade through matrigel” value in assay [2] was “consistently suppressed”. Moreover, in assay [2] (parental MeWo cells pre-treated for 48 hours), the tumor cell invasion entry is on record as “decreased”. Moreover, the “potency of ApoE expression induction in vitro” value in assay [3] is recorded as “potently induce”. Moreover, the “expression of ApoE” value in assay [3] (parental MeWo cells, 48 hours) is recorded as “increased expression”.
